These molecules were tested against CaMKIIδ (Homo sapiens (Human), UniProt Q13557) (assay: In vitro CaMKIIδ activity assay (coupled assay measuring ADP released, AC3 peptide substrate)). Conditions: full length C-terminal His/Gln tagged CaMKIIδ construct, 16 nM enzyme, 25° C., compound 0.5 nM to 10 uM, duplicate.
Assay type: biochemical
Procedure: An exemplary procedure for the in vitro CaMKIIδ inhibition assay, which can be used to determine the inhibitory action of compounds of the invention toward CaMKII, follows. The procedure is taken from Chao L H, et al., (2010) Nat Struct Mol Biol. 17(3): 264-272, which is incorporated herein by reference in its entirety.
The inhibition of CaMKII activity was evaluated using a coupled assay measuring ADP released following ATP hydrolysis and phosphor-transfer to the peptide substrate AC3 (KKALHRQETVDAL; SEQ ID NO: 1) (1). A full length, C-terminal His/Gln tagged CaMKIIδ construct was used (sequence in Table 3 below).
Compounds were added in 5 uL volume to wells in UV transparent 96-well plates (1/2 area well size). The final compound concentrations tested ranged from 0.5 nM to 10 uM). Assays were performed in duplicate. CaMKIIδ is added to at a final concentration of 16 nM to a mixture containing 100 mM Tris (pH 7.5), 150 mM KCl, 0.27 mM EGTA, 1.3 mM PEP, 0.2 mg/ml AC3, 6.9% (v/v) PK/LDH mixture (Sigma P0294), 0.38 mM NADH and kept on ice. 72 uL of the enzyme mixture was added to the wells containing compounds and the plate was shaken briefly and kept on ice. The assay was initiated by adding 23 uL of a mixture containing 100 mM Tris (pH 7.5), 150 mM KCl, 1.7 mM CaCl2, 48 mM MgCl2, 0.35 mM ATP and 6.7 ug/mL calmodulin. The rate of ADP released was measured as the rate of absorbance decrease at […] at 25° C. and plotted against the log of the compound concentration (FIG. 1). IC50 data were fitted using GraphPad Prism software.

IC50 | Compound
50 to 250 nM | c1cc(-c2ccnc3[nH]c4ccccc4c23)cc(N2CCNCC2)c1 [Compound I-1, 4-(3-(piperazin-1-yl)phenyl)-9H-pyrido[2,3-b]indole]
50 to 250 nM | N=C(N)Nc1cccc(-c2ccnc3[nH]c4ccccc4c23)c1 [Compound I-4]
250 to 1000 nM | N=C(N)NCc1cccc(-c2ccnc3[nH]c4ccccc4c23)c1 [Compound I-5]
50 to 250 nM | Nc1cccc(-c2ccnc3[nH]c4ccccc4c23)c1 [Compound I-6]
